One data set has as its system gastric emptying. The data set is described as follows: Test 1: gastric emptying enhancing activity (phenol red test meal). The data set is classed as in vivo, Male Wistar rats. The note with it: po, 0.25 h, 60 min before test meal, rat, read-out: Gastric emptying enhancing activity, Increase (emptying rate vs control); for change in vivo at 2 mg/kg: 2.0 mg/kg p.o. How it is done:
The test was carried out according to the method of Scarpignato et al. [cf. Arch. int. Pharmacodyn., 246, 286-294 (1980)].
Male Wistar rats, weighing 130-150 g, were fasted for 18 hours before experimentation, and 1.5 ml of a test meal (phenol red 0.05% in a 1.5% aqueous methylcellulose solution) was given by gastric tube. Fifteen minutes after administration of the meal the stomach was removed and the amount of phenol red remaining in the stomach was measured.
The test compounds, dissolved or suspended in a 0.5% tragacanth solution, were orally administered 60 minutes before administration of the test meal. The rate of gastric emptying was calculated according to the amount of phenol red remaining in the stomach, and the activity of the test compounds was expressed in terms of increase in the emptying rate from the control. The number of animals used was 5 for the control and each dose of metoclopramide hydrochloride monohydrate and 4 for each dose of the other test compounds.

The next data set has as its system central nervous system. The data set is described as follows: Test 3: effect on the central nervous system (CNS effect), Irwin observation. The note with it: 100 mg/kg, p.o., mouse, 2 hours observation.

Experimental for central nervous system: Male ddY mice, weighing 18-25 g, were used in groups of 3 animals each. […] Psychopharmacologia, 13, 222-227 (1968)], comprehensive observation of behavioral and physiologic states were carried out for 2 hours after the oral treatment with 100 mg/kg of the test compound, dissolved or suspended in a 0.5% tragacanth solution. Liability of the test compounds to the central nervous system effect was expressed with the following marks, according to the total sum of potencies for the individually analyzed effects, such as catalepsy, ptosis, hypolocomotin, etc.

For `CCOc1cc(N)c(Cl)cc1C(=O)NCC1CN(Cc2ccncc2)CCO1` (stereo not drawn) [Example 81], the change in vivo at 2 mg/kg in the data set on gastric emptying came out at 52.9%. In the data set with central nervous system, the CNS effect entry was “-”.

On to `CCOc1cc(N)c(Cl)cc1C(=O)NCC1CN(Cc2cccnc2)CCO1` (stereo not drawn) [80(1)], for which, in the data set with gastric emptying, the change in vivo at 2 mg/kg was found to be 65.6%. Moreover, in the data set with central nervous system, the CNS effect result was “-”.

As to `CC(C)CCOc1cc(N)c(Cl)cc1C(=O)NCC1CN(Cc2ccccc2)CCO1` (stereo not drawn) [Example 93, 4-amino-N-[(4-benzyl-2-morpholinyl)methyl]-5-chloro-2-isopentyloxybenzamide], the change in vivo at 0.5 mg/kg in the data set on gastric emptying (0.5 mg/kg p.o.) was 46.9%. Besides, the change in vivo at 2 mg/kg in the data set with gastric emptying worked out at 44.2%. Besides, the CNS effect entry with central nervous system was “-”.

Turning to `CCOc1cc(N)c(Cl)cc1C(=O)NCCC1CN(Cc2ccccc2)CCO1` (stereo not drawn) [Example 8, 4-amino-N-[2-(4-benzyl-2-morpholinyl)ethyl]-5-chloro-2-ethoxybenzamide], the change in vivo at 2 mg/kg in the data set on gastric emptying turned out to be 44.9%. Further, the CNS effect result in the data set with central nervous system is “-”.

Take `CC(O)COc1cc(N)c(Cl)cc1C(=O)NCC1CN(Cc2ccccc2)CCO1` (stereo not drawn) [Example 105]: in the data set with gastric emptying, the change in vivo at 2 mg/kg was 52%. For the same compound, in the data set with central nervous system, the CNS effect result was “-”.

Turning to `CCOc1cc(N)c(Cl)cc1C(=O)NCC1CN(Cc2ccc(Cl)cc2[N+](=O)[O-])CCO1` (stereo not drawn) [Example 74], the change in vivo at 2 mg/kg in the data set with gastric emptying is 46.7%. The CNS effect result in the data set with central nervous system is “-”.

On to `C=CCCOc1cc(N)c(Cl)cc1C(=O)NCC1CN(Cc2ccccc2)CCO1` (stereo not drawn) [Example 119], for which, in the data set on gastric emptying, the change in vivo at 2 mg/kg is 48.4%. In addition, in the data set on central nervous system, the CNS effect result is reported as “-”.

On to `CCCCCCCOc1cc(N)c(Cl)cc1C(=O)NCC1CN(Cc2ccccc2)CCO1` (stereo not drawn) [Example 97], for which the change in vivo at 2 mg/kg in the data set with gastric emptying was found to be 43.8%. In addition, the CNS effect result with central nervous system is reported as “-”.

In the case of `CCOc1cc(N)c(Cl)cc1C(=O)NCC1CN(Cc2ccccc2Cl)CCO1` (stereo not drawn) [66(1)], the change in vivo at 2 mg/kg with gastric emptying came out at 41.3%. Further, the CNS effect entry in the data set on central nervous system is listed as “-”.

Regarding `Nc1cc(OC2CCCC2)c(C(=O)NCC2CN(Cc3ccccc3)CCO2)cc1Cl` (stereo not drawn) [Example 101], the change in vivo at 2 mg/kg in the data set with gastric emptying was determined as 46.4%. The CNS effect entry in the data set on central nervous system is “-”.

Turning to `COc1cc(N)c(Cl)cc1C(=O)NCC1CN(Cc2ccccc2)CCO1` (stereo not drawn) [18(2), 4-amino-N-[(4-benzyl-2-morpholinyl)methyl]-5-chloro-2-methoxybenzamide], in the data set with gastric emptying, the change in vivo at 2 mg/kg amounted to 39.3%. The CNS effect result in the data set with central nervous system is listed as “-”.

For `CC(C)CCOc1cc(N)c(Cl)cc1C(=O)NCC1CN(Cc2ccc(F)cc2)CCO1` (stereo not drawn) [Example 94], in the data set with gastric emptying, the change in vivo at 2 mg/kg turned out to be 52%. Further, in the data set on central nervous system, the CNS effect result is given as “-”.

Turning to `COc1cc(N)c(Cl)cc1C(=O)NCC1CN(Cc2ccc(C#N)cc2)CCO1` (stereo not drawn) [Example 6, 4-amino-5-chloro-N-[[4-(4-cyanobenzyl)-2-morpholinyl]methyl]-2-methoxybenzamide], the change in vivo at 2 mg/kg in the data set with gastric emptying is 49.2%. For the same compound, the CNS effect entry with central nervous system is on record as “-”.

The values are drawn from patent US4870074A, “Substituted benzamide derivatives, for enhancing gastrointestinal motility” (priority 1986, dated 1989).
